Results on 1 molecule are retold here after PMC12753884, “Naringenin targets FimZ to regulate type I fimbriae and reduce the virulence of Salmonella” (Frontiers in Cellular and Infection Microbiology, 2025).

Common to all, as to format: binding
The target of assay [1] is T1, FimZ (Salmonella enterica, UniProt P26319, I135A).
T1 construct: Flag-FimZ-His mutant
T1 sequence (P26319 1-210 I135A): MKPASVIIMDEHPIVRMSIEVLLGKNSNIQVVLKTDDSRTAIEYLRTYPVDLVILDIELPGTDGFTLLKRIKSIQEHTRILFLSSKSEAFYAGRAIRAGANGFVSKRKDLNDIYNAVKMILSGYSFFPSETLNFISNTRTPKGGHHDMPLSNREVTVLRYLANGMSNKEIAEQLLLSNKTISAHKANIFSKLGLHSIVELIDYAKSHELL
In words: SPR (Biacore X100, His-antibody capture on CM5 chip). (In general: SPR reads the build-up and loss of mass on a sensor chip optically.)

For assay [2], the target named is T2, FimZ (Salmonella enterica, UniProt P26319, T138A).
T2 construct: Flag-FimZ-His mutant
T2 sequence (P26319 1-210 T138A): T1 sequence (P26319 1-210 I135A)
The assay is described as above.

Assay [3] deals with T3, FimZ (Salmonella enterica, UniProt P26319).
T3 construct: Flag-FimZ-His, whole fimZ fragment of SL1344 in pET-28a
In words: SPR (Biacore X100, His-antibody capture on CM5 chip); EMSA support. (Mobility shift assays separate free from complexed probe on a gel.)

By Kd is commonly meant the equilibrium constant for the complex coming apart. The low end stands for higher affinity, the high end for lower affinity. `O=C1C[C@@H](c2ccc(O)cc2)Oc2cc(O)cc(O)c21` [Nar, naringenin]: the Kd came out at 152 µM on FimZ [1], 412 µM at FimZ [2] and 33.9 µM on FimZ [3].
